Test results: patent publication US20120276225A1, “PHYTOESTROGENIC NUTRACEUTICAL COMPOSITION FROM PALM LEAF EXTRACT” (UNIVERSITI PUTRA MALAYSIA, priority 2009, published 2012)

Legend:
[1] = system: vaginal epithelium in the immature female mice; details: cited from earlier work
[2] = system: vaginal epithelium and uterus of ovarectomized female Sprague-Dawley rats; test: Estrogenic activity in bilaterally ovarectomized rats (vaginal cornification, uterine wet weight); type: in vivo, rat; details: positive control gavaged daily 5 mg/kg BW
Protocol: Phytoestrogenic enhancing activities of PLE were evaluated in normal and ovariectomised rats at 150 and 300 mg/kg doses. Estrogenic activity of the alcoholic extract was assessed in bilaterally ovarectomized female Sprague-Dawley rats taking percentage vaginal cornification, and uterine wet weight as parameters of assessment. Ovarectomized female rats (9 rats per group) given distilled water were used as a negative control, while rats gavaged daily with 5 mg/kg BW diethylstilbesterol were used as a positive control. At the end of treatment period of 14 days, rats were euthanized; the uteri were dissected and weighed, thereafter.

Row | SMILES | cornification of the vaginal epithelium [1] | cornification of the vaginal epithelium [2]
1 | CC1(C)[C@H]2C(=COc3cc(O)ccc32)[C@]2(O)C(=O)C[C@]3(O)C[C@H]1[C@H]2[C@H]3O [Miroestrol] | produced cornification of the vaginal epithelium | –
2 | CC/C(=C(/CC)c1ccc(O)cc1)c1ccc(O)cc1 [synthetic estrogen, diethylstilbesterol] | – | induced a cornification of the vaginal epithelium as early as the third day of treatment
